# Assays:
# [1] = molecular target: T1, Bradykinin-1 receptor (Homo sapiens (Human), UniProt P46663); test: Calcium mobilization assay (FLIPR, Fluo-4) in GeneBLAzer Bradykinin (B1)-NFAT-bla CHO-K1 cells; type: cell-based; details: antagonist activity; CHO-K1 cells stably overexpressing the human bradykinin 1 receptor; read-out: Ca mobilization Assay IC50
# Description: Calcium Mobilization Assay
# GeneBLAzer® Bradykinin (B1)-NFAT-bla CHO-K1 cells (from Invitrogen) stably overexpressing the human bradykinin 1 receptor were cultured in DMEM (high glucose) supplemented with 10% dialysed FBS, 1% NEAA (non essential amino acids) 1% penicillin/streptomycin, 1% G418 and 0.1 mg/ml zeocin.
# For the assay cells were grown overnight in 384-well black clear flat bottom polystyrene plates (Costar) at 37° C. at 5% CO2. After washing with DMEM, 20 mM Hepes, 2.5 mM probenecid, 0.1% BSA (DMEM assay buffer) cells were loaded with 4 μM Fluo-4 in the same DMEM assay buffer for 2 hours at 30° C. Excess dye was removed and cells were washed with DMEM assay buffer. 384-well compound plates were prepared with DMEM assay buffer/0.5% DMSO with or without various concentrations of test compounds. Usually compounds were tested for agonist and antagonist activity.
# Test compounds were added to the assay plate and agonist activity was monitored as fluorescence for 80 seconds with a FLIPR (488 nm excitation; 510-570 nm emission; Molecular Devices). After 20-30 min. of incubation at 30° C., 20 nM […] (R&D; Roche) was added and fluorescence was monitored again for 80 seconds. Increases in intracellular calcium are reported as maximum fluorescence after agonist exposure minus basal fluorescence before exposure.
# [2] = molecular target: T1, Bradykinin-1 receptor; test: Receptor binding assay (B1R Binding Assay), [3H]-Kallidin (Des Arg10, Leu9) displacement; details: membranes from CHO-K1 cells overexpressing Bradykinin-1 receptor; 6 nM radioligand
# Description: Binding assays were done with membranes from CHO-K1 cells overexpressing Bradykinin-1 receptor.
# To determine non-specific binding 10 μM Lys-(Des-Arg^9)-Bradykinin (Bachem) was added. Membranes were harvested through GF/B (glass fiber filter; PerkinElmer) plates, equilibrated with 0.5% polyethylenimine, air dried at 50° C. for 2 h. Radioactivity was determined by counting in a topcounter (NXT Packard).
# T1 sequence (P46663 whole entry): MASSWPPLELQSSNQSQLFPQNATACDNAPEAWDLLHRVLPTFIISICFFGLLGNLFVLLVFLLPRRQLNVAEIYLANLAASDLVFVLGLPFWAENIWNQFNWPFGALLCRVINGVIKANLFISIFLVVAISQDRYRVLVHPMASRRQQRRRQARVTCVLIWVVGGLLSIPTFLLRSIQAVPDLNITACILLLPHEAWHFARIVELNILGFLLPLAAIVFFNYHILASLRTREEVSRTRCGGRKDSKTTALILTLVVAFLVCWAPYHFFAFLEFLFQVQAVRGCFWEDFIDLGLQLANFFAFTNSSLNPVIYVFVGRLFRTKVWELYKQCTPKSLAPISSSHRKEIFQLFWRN
IC50 [1] [nM],Ki [2] [nM],Structure (SMILES)
0.1,3.1,"Cc1nc(-c2c(F)cc(Cl)cc2-c2ccc3c(c2)CC[C@@H]3NC(=O)C2(NC(=O)c3cncnc3)CC2)no1 [Example 25, Pyrimidine-5-carboxylic acid(1-{(S)-5-[5-chloro-3-fluoro-2-(5-methyl-[1,2,4]oxadiazol-3-yl)-phenyl]-indan-1-ylcarbamoyl}-cyclopropyl)-amide]"
0.5,11,"Cc1nc(-c2c(F)cc(Cl)cc2-c2cc(F)c3c(c2)CCC3NC(=O)C2(NC(=O)C(F)(F)F)CC2)no1 (racemic) [Example 16, 1-(2,2,2-Trifluoro-acetylamino)-cyclopropanecarboxylic acid{(rac)-5-[5-chloro-3-fluoro-2-(5-methyl-[1,2,4]oxadiazol-3-yl)-phenyl]-7-fluoro-indan-1-yl}-amide]"
0.4,5.8,"Cn1nnc(-c2c(F)cc(Cl)cc2-c2cnc3c(c2)CCC3NC(=O)C2(NC(=O)c3ccno3)CC2)n1 (racemic) [Example 57, Isoxazole-5-carboxylic acid(1-{(rac)-3-[5-chloro-3-fluoro-2-(2-methyl-2H-tetrazol-5-yl)-phenyl]-6,7-dihydro-5H-[1]pyrindin-7-ylcarbamoyl}-cyclopropyl)-amide]"
0.2,4,"COc1ncc(C(=O)NC2(C(=O)NC3CCc4cc(-c5cc(Cl)cc(F)c5-c5noc(C)n5)cnc43)CC2)cn1 (racemic) [Example 42, 2-Methoxy-pyrimidine-5-carboxylic acid(1-{(rac)-3-[5-chloro-3-fluoro-2-(5-methyl-[1,2,4]oxadiazol-3-yl)-phenyl]-6,7-dihydro-5H-[1]pyrindin-7-ylcarbamoyl}-cyclopropyl)-amide]"
0.4,3.6,"COc1cc(C(=O)NC2(C(=O)N[C@H]3CCc4cc(-c5cc(Cl)cc(F)c5-c5noc(C)n5)ccc43)COC2)on1 [Example 53, 3-Methoxy-isoxazole-5-carboxylic acid (3-{(S)-5-[5-chloro-3-fluoro-2-(5-methyl-[1,2,4]oxadiazol-3-yl)-phenyl]-indan-1-ylcarbamoyl}-oxetan-3-yl)-amide]"
0.4,6.3,"Cc1cc(C(=O)NC2(C(=O)NC3CCc4cc(-c5cc(Cl)cc(F)c5-c5nnn(C)n5)cnc43)CC2)on1 (racemic) [Example 58, 3-Methyl-isoxazole-5-carboxylic acid(1-{(rac)-3-[5-chloro-3-fluoro-2-(2-methyl-2H-tetrazol-5-yl)-phenyl]-6,7-dihydro-5H-[1]pyrindin-7-ylcarbamoyl}-cyclopropyl)-amide]"
0.4,4.8,"Cc1nc(-c2c(F)cc(Cl)cc2-c2ccc3c(c2)CC[C@@H]3NC(=O)C2(NC(=O)c3cncnc3)COC2)no1 [Example 50, Pyrimidine-5-carboxylic acid (3-{(S)-5-[5-chloro-3-fluoro-2-(5-methyl-[1,2,4]oxadiazol-3-yl)-phenyl]-indan-1-ylcarbamoyl}-oxetan-3-yl)-amide]"
0.3,3.5,"COc1cc(C(=O)NC2(C(=O)NC3CCc4cc(-c5cc(Cl)cc(F)c5-c5nnn(C)n5)cnc43)CC2)on1 (racemic) [Example 59, 3-Methoxy-isoxazole-5-carboxylic acid(1-{(rac)-3-[5-chloro-3-fluoro-2-(2-methyl-2H-tetrazol-5-yl)-phenyl]-6,7-dihydro-5H-[1]pyrindin-7-ylcarbamoyl}-cyclopropyl)-amide]"
0.2,4,"Cc1nc(-c2c(F)cc(Cl)cc2-c2cnc3c(c2)CCC3NC(=O)C2(NC(=O)c3ccnnc3)CC2)no1 (single isomer, unassigned) [Example 41, Pyridazine-4-carboxylic acid(1-{(S or R) 3-[5-chloro-3-fluoro-2-(5-methyl-[1,2,4]oxadiazol-3-yl)-phenyl]-6,7-dihydro-5H-[1]pyrindin-7-ylcarbamoyl}-cyclopropyl)-amide]"
3.6,24,"Cn1nnc(-c2c(F)cc(Cl)cc2-c2ccc3c(c2)OCC3NC(=O)C2(NC(=O)C(F)(F)F)CC2)n1 (racemic) [Example 20, 1-(2,2,2-Trifluoro-acetylamino)-cyclopropanecarboxylic acid{(rac)-6-[5-chloro-3-fluoro-2-(2-methyl-2H-tetrazol-5-yl)-phenyl]-2,3-dihydro-benzofuran-3-yl}-amide]"
0.2,3,"COc1cc(C(=O)NC2(C(=O)NC3CCc4cc(-c5cc(Cl)cc(F)c5-c5noc(C)n5)cnc43)CC2)on1 (racemic) [Example 38, 3-Methoxy-isoxazole-5-carboxylic acid(1-{(rac)-3-[5-chloro-3-fluoro-2-(5-methyl-[1,2,4]oxadiazol-3-yl)-phenyl]-6,7-dihydro-5H-[1]pyrindin-7-ylcarbamoyl}-cyclopropyl)-amide]"
2250,2170,"COC(=O)c1ccccc1-c1ccc2c(c1)CCC2NC(=O)C1(NC(=O)C(F)(F)F)CC1 (racemic) [Example 1, (rac)-2-(1-{[1-(2,2,2-Trifluoro-acetylamino)-cyclopropanecarbonyl]-amino}-indan-5-yl)-benzoic acid methyl ester]"
2.3,9.5,"Cc1nc(-c2c(F)cc(Cl)cc2-c2ccc3c(c2)SCC3NC(=O)C2(NC(=O)C(F)(F)F)CC2)no1 (racemic) [Example 21, 1-(2,2,2-Trifluoro-acetylamino)-cyclopropanecarboxylic acid{(rac)-6-[5-chloro-3-fluoro-2-(5-methyl-[1,2,4]oxadiazol-3-yl)-phenyl]-2,3-dihydro-benzo[b]thiophen-3-yl}-amide]"
3.6,361,"Cc1nc(-c2c(F)cc(Cl)cc2-c2cnc3c(c2)CCC3NC(=O)C2(NC(=O)OC(C)(C)C)CC2)no1 (racemic) [Example 36, (1-{(rac)-3-[5-Chloro-3-fluoro-2-(5-methyl-[1,2,4]oxadiazol-3-yl)-phenyl]-6,7-dihydro-5H-[1]pyrindin-7-ylcarbamoyl}-cyclopropyl)-carbamic acid tert-butyl ester]"
4.8,12.2,"Cc1nnc(C(=O)NC2(C(=O)NC3CSc4cc(-c5cc(Cl)cc(F)c5-c5nnn(C)n5)ccc43)CC2)o1 (racemic) [Example 62, 5-Methyl-[1,3,4]oxadiazole-2-carboxylic acid(1-{(rac)-6-[5-chloro-3-fluoro-2-(2-methyl-2H-tetrazol-5-yl)-phenyl]-2,3-dihydro-benzo[b]thiophen-3-ylcarbamoyl}-cyclopropyl)-amide]"
2.7,11.8,"Cc1nc(-c2c(F)cc(Cl)cc2-c2ccc3c(c2)CC[C@@H]3NC(=O)C2(NC(=O)c3ccno3)COC2)no1 [Example 51, Isoxazole-5-carboxylic acid (3-{(S)-5-[5-chloro-3-fluoro-2-(5-methyl-[1,2,4]oxadiazol-3-yl)-phenyl]-indan-1-ylcarbamoyl}-oxetan-3-yl)-amide]"
0.8,6.6,"Cn1nnc(-c2c(F)cc(Cl)cc2-c2ccc3c(c2)SCC3NC(=O)C2(NC(=O)C(F)(F)F)CC2)n1 (racemic) [Example 22, 1-(2,2,2-Trifluoro-acetylamino)-cyclopropanecarboxylic acid{(rac)-6-[5-chloro-3-fluoro-2-(2-methyl-2H-tetrazol-5-yl)-phenyl]-2,3-dihydro-benzo[b]thiophen-3-yl}-amide]"
0.3,4.1,"Cc1nc(-c2c(F)cc(Cl)cc2-c2ccc3c(c2)CC[C@@H]3NC(=O)C2(NC(=O)c3ccno3)CC2)no1 [Example 28, Isoxazole-5-carboxylic acid(1-{(S)-5-[5-chloro-3-fluoro-2-(5-methyl-[1,2,4]oxadiazol-3-yl)-phenyl]-indan-1-ylcarbamoyl}-cyclopropyl)-amide]"
47.4,123,"COC(=O)c1c(Cl)cccc1-c1ccc2c(c1)CCC2NC(=O)C1(NC(=O)C(F)(F)F)CC1 (racemic) [Example 3, (rac)-2-Chloro-6-(1-{[1-(2,2,2-trifluoro-acetylamino)-cyclopropanecarbonyl]-amino}-indan-5-yl)-benzoic acid methyl ester]"
4,23.8,"COc1cc(C(=O)NC2(C(=O)NC3COc4cc(-c5cc(Cl)cc(F)c5-c5noc(C)n5)ccc43)CC2)on1 (racemic) [Example 48, 3-Methoxy-isoxazole-5-carboxylic acid(1-{(rac)-6-[5-chloro-3-fluoro-2-(5-methyl-[1,2,4]oxadiazol-3-yl)-phenyl]-2,3-dihydro-benzofuran-3-ylcarbamoyl}-cyclopropyl)-amide]"
76.8,146,"O=C(NC1(C(=O)NC2CCc3cc(-c4cc(Cl)cc(Cl)c4OCC(F)F)ccc32)CC1)C(F)(F)F (racemic) [Example 2, 1-(2,2,2-Trifluoro-acetylamino)-cyclopropanecarboxylic acid (rac)-{5-[3,5-dichloro-2-(2,2-difluoro-ethoxy)-phenyl]-indan-1-yl}-amide]"
